Test system: SW620 colorectal cancer cell line
Assay: Flow cytometry of EpCAM positive cells and cancer stem cell (CD44+CD133-) subpopulation after incubation with cytokines
Assay type: cell-based, human
Settings: for % Gated, R4 (CD44FITC, CD133 PE) / % Total, R4 (CD44FITC, CD133 PE): population R4 & R14 & R2 & R1; for % Gated, R5 (CD44FITC, CD133 PE) / % Total, R5 (CD44FITC, CD133 PE): population R5 & R14 & R2 & R1; for % Gated, R6 (CD44FITC, CD133 PE) / % Total, R6 (CD44FITC, CD133 PE): population R6 & R14 & R2 & R1; for % Gated, R7 Cancer Stem Cell (CSC) (CD44+CD133-) / % Total, R7 Cancer Stem Cell (CSC) (CD44+CD133-): population R7 & R14 & R2 & R1; for % Gated, R8 (CD44FITC, EpCAMefluor710) / % Total, R8 (CD44FITC, EpCAMefluor710): population R8 & R14 & R2 & R1; for % Gated, R9 EpCAM positive Cells (CD44FITC, EpCAMefluor710) / % Total, R9 EpCAM positive Cells (CD44FITC, EpCAMefluor710): population R9 & R14 & R2 & R1; for % Gated, R10 EpCAM positive Cells (CD44FITC, EpCAMefluor710) / % Total, R10 EpCAM positive Cells (CD44FITC, EpCAMefluor710): population R10 & R14 & R2 & R1; for % Gated, R11 (CD44FITC, EpCAMefluor710) / % Total, R11 (CD44FITC, EpCAMefluor710): population R11 & R14 & R2 & R1
Experimental: This number returned to near baseline 21% at 48 hours. […] This change was transient, occurring within 24 hours and rapidly returning to baseline.
The data from the scatter plots of FIGS. 1A-1H, 2A-2H, and 3A-3H are reproduced below in Tables 1-3.
Based on the above data of potentiating the effectiveness of chemotherapy by exposing cancer cells to specific cytokines such as HGF and or Il-6 within a time limited fashion, the mechanism behind this ability to sensitize cancer cells may not simply be triggering cellular proliferation. Specific cytokine exposures can transiently cause a cancer cell population to differentiate away from a more stem cell enriched, mesenchymal phenotype towards a more differentiated, epithelial cell population more sensitive to the effects of anti-cancer therapies (see Tables 1-3).
In particular, exposure to a control population of SW620 colorectal cancer cell line to HGF at a concentration of 10 ng per ml for 24 hours caused the control putative stem cell population (CD44+/CD133−) to drop from 33% at baseline (see Table 1, R7 region, CD 44 positive/CD133 negative) to 1% (see Table 2, R7, region CD 44 positive/CD133 negative). This drop was transient, as exposure to the same cell line for 48 hours of HGF at 10 ng per ml transitioned the phenotypic distribution back towards a stem cell enriched phenotype with 23% putative stem cells (see Table 3, R7 region, CD 44 positive/CD133 negative).

Substance: IL8: cytokine treatment IL8 in Tables 1-3
- % Gated, R4 (CD44FITC, CD133 PE) (0 hour incubation): 48.9%
- % Total, R4 (CD44FITC, CD133 PE) (0 hour incubation): 40.9%
- % Gated, R5 (CD44FITC, CD133 PE) (0 hour incubation): 3.58%
- % Total, R5 (CD44FITC, CD133 PE) (0 hour incubation): 2.99%
- % Gated, R6 (CD44FITC, CD133 PE) (0 hour incubation): 14.3%
- % Total, R6 (CD44FITC, CD133 PE) (0 hour incubation): 12%
- % Gated, R7 Cancer Stem Cell (CSC) (CD44+CD133-) (0 hour incubation): 33.5%
- % Total, R7 Cancer Stem Cell (CSC) (CD44+CD133-) (0 hour incubation): 28%
- % Gated, R8 (CD44FITC, EpCAMefluor710) (0 hour incubation): 3.84%
- % Total, R8 (CD44FITC, EpCAMefluor710) (0 hour incubation): 3.21%
- % Gated, R9 EpCAM positive Cells (CD44FITC, EpCAMefluor710) (0 hour incubation): 55%
- % Total, R9 EpCAM positive Cells (CD44FITC, EpCAMefluor710) (0 hour incubation): 46%
- % Gated, R10 EpCAM positive Cells (CD44FITC, EpCAMefluor710) (0 hour incubation): 38.9%
- % Total, R10 EpCAM positive Cells (CD44FITC, EpCAMefluor710) (0 hour incubation): 32.6%
- % Gated, R11 (CD44FITC, EpCAMefluor710) (0 hour incubation): 1.92%
- % Total, R11 (CD44FITC, EpCAMefluor710) (0 hour incubation): 1.6%
- % Gated, R4 (CD44FITC, CD133 PE) (24 h incubation): 36.8%
- % Total, R4 (CD44FITC, CD133 PE) (24 h incubation): 30%
- % Gated, R5 (CD44FITC, CD133 PE) (24 h incubation): 7.29%
- % Total, R5 (CD44FITC, CD133 PE) (24 h incubation): 5.93%
- % Gated, R6 (CD44FITC, CD133 PE) (24 h incubation): 30.9%
- % Total, R6 (CD44FITC, CD133 PE) (24 h incubation): 25.2%
- % Gated, R7 Cancer Stem Cell (CSC) (CD44+CD133-) (24 h incubation): 24.5%
- % Total, R7 Cancer Stem Cell (CSC) (CD44+CD133-) (24 h incubation): 19.9%
- % Gated, R8 (CD44FITC, EpCAMefluor710) (24 h incubation): 1.98%
- % Total, R8 (CD44FITC, EpCAMefluor710) (24 h incubation): 1.61%
- % Gated, R9 EpCAM positive Cells (CD44FITC, EpCAMefluor710) (24 h incubation): 48.4%
- % Total, R9 EpCAM positive Cells (CD44FITC, EpCAMefluor710) (24 h incubation): 39.4%
- % Gated, R10 EpCAM positive Cells (CD44FITC, EpCAMefluor710) (24 h incubation): 50.1%
- % Total, R10 EpCAM positive Cells (CD44FITC, EpCAMefluor710) (24 h incubation): 40.6%
- % Gated, R11 (CD44FITC, EpCAMefluor710) (24 h incubation): 0.34%
- % Total, R11 (CD44FITC, EpCAMefluor710) (24 h incubation): 0.27%
- % Gated, R4 (CD44FITC, CD133 PE) (48 h incubation): 38.5%
- % Total, R4 (CD44FITC, CD133 PE) (48 h incubation): 35.8%
- % Gated, R5 (CD44FITC, CD133 PE) (48 h incubation): 6.8%
- % Total, R5 (CD44FITC, CD133 PE) (48 h incubation): 6.32%
- % Gated, R6 (CD44FITC, CD133 PE) (48 h incubation): 28.5%
- % Total, R6 (CD44FITC, CD133 PE) (48 h incubation): 26.5%
- % Gated, R7 Cancer Stem Cell (CSC) (CD44+CD133-) (48 h incubation): 26.8%
- % Total, R7 Cancer Stem Cell (CSC) (CD44+CD133-) (48 h incubation): 24.9%
- % Gated, R8 (CD44FITC, EpCAMefluor710) (48 h incubation): 23.1%
- % Total, R8 (CD44FITC, EpCAMefluor710) (48 h incubation): 21.5%
- % Gated, R9 EpCAM positive Cells (CD44FITC, EpCAMefluor710) (48 h incubation): 31%
- % Total, R9 EpCAM positive Cells (CD44FITC, EpCAMefluor710) (48 h incubation): 28.8%
- % Gated, R10 EpCAM positive Cells (CD44FITC, EpCAMefluor710) (48 h incubation): 25.4%
- % Total, R10 EpCAM positive Cells (CD44FITC, EpCAMefluor710) (48 h incubation): 23.6%
- % Gated, R11 (CD44FITC, EpCAMefluor710) (48 h incubation): 21.4%
- % Total, R11 (CD44FITC, EpCAMefluor710) (48 h incubation): 19.9%

Substance: PDGF Beta: Platelet derived growth factor BB
- % Gated, R4 (CD44FITC, CD133 PE) (0 hour incubation): 49.7%
- % Total, R4 (CD44FITC, CD133 PE) (0 hour incubation): 46.5%
- % Gated, R5 (CD44FITC, CD133 PE) (0 hour incubation): 2.45%
- % Total, R5 (CD44FITC, CD133 PE) (0 hour incubation): 2.29%
- % Gated, R6 (CD44FITC, CD133 PE) (0 hour incubation): 10.7%
- % Total, R6 (CD44FITC, CD133 PE) (0 hour incubation): 9.97%
- % Gated, R7 Cancer Stem Cell (CSC) (CD44+CD133-) (0 hour incubation): 37.3%
- % Total, R7 Cancer Stem Cell (CSC) (CD44+CD133-) (0 hour incubation): 34.9%
- % Gated, R8 (CD44FITC, EpCAMefluor710) (0 hour incubation): 4.94%
- % Total, R8 (CD44FITC, EpCAMefluor710) (0 hour incubation): 4.62%
- % Gated, R9 EpCAM positive Cells (CD44FITC, EpCAMefluor710) (0 hour incubation): 53.5%
- % Total, R9 EpCAM positive Cells (CD44FITC, EpCAMefluor710) (0 hour incubation): 50%
- % Gated, R10 EpCAM positive Cells (CD44FITC, EpCAMefluor710) (0 hour incubation): 38.8%
- % Total, R10 EpCAM positive Cells (CD44FITC, EpCAMefluor710) (0 hour incubation): 36.3%
- % Gated, R11 (CD44FITC, EpCAMefluor710) (0 hour incubation): 2.33%
- % Total, R11 (CD44FITC, EpCAMefluor710) (0 hour incubation): 2.18%
- % Gated, R4 (CD44FITC, CD133 PE) (24 h incubation): 36.2%
- % Total, R4 (CD44FITC, CD133 PE) (24 h incubation): 32.4%
- % Gated, R5 (CD44FITC, CD133 PE) (24 h incubation): 8.6%
- % Total, R5 (CD44FITC, CD133 PE) (24 h incubation): 7.7%
- % Gated, R6 (CD44FITC, CD133 PE) (24 h incubation): 32.2%
- % Total, R6 (CD44FITC, CD133 PE) (24 h incubation): 28.8%
- % Gated, R7 Cancer Stem Cell (CSC) (CD44+CD133-) (24 h incubation): 22.6%
- % Total, R7 Cancer Stem Cell (CSC) (CD44+CD133-) (24 h incubation): 20.3%
- % Gated, R8 (CD44FITC, EpCAMefluor710) (24 h incubation): 4.94%
- % Total, R8 (CD44FITC, EpCAMefluor710) (24 h incubation): 4.42%
- % Gated, R9 EpCAM positive Cells (CD44FITC, EpCAMefluor710) (24 h incubation): 45.3%
- % Total, R9 EpCAM positive Cells (CD44FITC, EpCAMefluor710) (24 h incubation): 40.6%
- % Gated, R10 EpCAM positive Cells (CD44FITC, EpCAMefluor710) (24 h incubation): 47.4%
- % Total, R10 EpCAM positive Cells (CD44FITC, EpCAMefluor710) (24 h incubation): 42.5%
- % Gated, R11 (CD44FITC, EpCAMefluor710) (24 h incubation): 3.22%
- % Total, R11 (CD44FITC, EpCAMefluor710) (24 h incubation): 2.88%
- % Gated, R4 (CD44FITC, CD133 PE) (48 h incubation): 40.1%
- % Total, R4 (CD44FITC, CD133 PE) (48 h incubation): 27.6%
- % Gated, R5 (CD44FITC, CD133 PE) (48 h incubation): 7.5%
- % Total, R5 (CD44FITC, CD133 PE) (48 h incubation): 5.16%
- % Gated, R6 (CD44FITC, CD133 PE) (48 h incubation): 27.4%
- % Total, R6 (CD44FITC, CD133 PE) (48 h incubation): 18.9%
- % Gated, R7 Cancer Stem Cell (CSC) (CD44+CD133-) (48 h incubation): 25.6%
- % Total, R7 Cancer Stem Cell (CSC) (CD44+CD133-) (48 h incubation): 17.6%
- % Gated, R8 (CD44FITC, EpCAMefluor710) (48 h incubation): 24.4%
- % Total, R8 (CD44FITC, EpCAMefluor710) (48 h incubation): 16.8%
- % Gated, R9 EpCAM positive Cells (CD44FITC, EpCAMefluor710) (48 h incubation): 31.8%
- % Total, R9 EpCAM positive Cells (CD44FITC, EpCAMefluor710) (48 h incubation): 21.9%
- % Gated, R10 EpCAM positive Cells (CD44FITC, EpCAMefluor710) (48 h incubation): 23.5%
- % Total, R10 EpCAM positive Cells (CD44FITC, EpCAMefluor710) (48 h incubation): 16.2%
- % Gated, R11 (CD44FITC, EpCAMefluor710) (48 h incubation): 21.1%
- % Total, R11 (CD44FITC, EpCAMefluor710) (48 h incubation): 14.5%

Reference: US20190209650A1, “METHOD TO IMPROVE THE EFFECTIVENESS OF ANTI-CANCER THERAPIES BY EXPOSING CANCER CELLS TO AN INFLAMMATORY STIMULUS PRIOR TO TREATMENT” (priority 2016, published 2019)
